The values below come from patent US8778643B2, “Methods for increasing lipid levels and producing triacylglycerols in algae” (priority 2012, dated 2014).

pIC50, pKi: −log10 of the molar value. Like-named read-outs stand apart in the source and are kept apart here.

Experiment [1] concerns Nannochloris sp. The experiment is described as follows: Microplate assay: growth (absorbance 680 nm) and intracellular lipids (Nile Red fluorescence). Type of experiment: cell-based. The settings on record: for Absorbance (percent increase) / Nile Red percent increase: initial microplate screen, relative to control; for Nile Red Fluorescence % Increase: initial screening, p<0.05.

Experiment [2] deals with Nannochloropsis oculata. The conditions noted are these: for Nile Red Fluorescence % Increase: N. oculata, compounds tested at 200 nM, initial screening, p<0.05.
Procedure: Stock cultures were aerated by stirring with bubbling air (homemade manifold with Petco air pump, 2-4% CO2) or by orbital shaking (Thermo Scientific MAXQ 2000) at a constant speed of 150 rpm at 22±3° C. with a 16:8 hour light/dark cycle. Stocks were kept at stationary phase for use. Algae were prepared as dictated by culture center.
Compounds were selected based on reported biological activity in non-microalgae organisms. To ensure that compounds retained their quality, they were stored under advised conditions after purchasing from the manufacturer. Solutions of all assay compounds were prepared as 10 mM stock solutions by dissolving in DMSO in 2-dram amber vials and then stored in darkness −20° C. 96-well PCR plates were used to create a stock plate layout that was then transferred to the algae microplates. A plate map was used to distribute each compound to a well based on molecule name, collection number, and CAS number. For 20 μM and 200 nM assay plates, 10 mM compound stock in DMSO was diluted into plate maps of 5 mM and 50 μM assay stocks, respectively.
All materials for assay experiments were autoclaved before each use to maintain axenic algae cultures. Algae species were checked for homogeneity using a TS-100 light microscope (Nikon, Japan). […] Diluted stock solutions were made immediately prior to use for consistency and optimal plate growth. Cell density was measured on a Thermo Scientific Genesys 10S Vis Spectrophotometer (ThermoFisher, San Jose), using a 1 mL cuvette at 680 nm.
Plates were originally run in triplicate, before replicates were increased to quadruplicate, along with a separate control plate to compare growth. Due to extensive evaporation in exterior wells over time, our unique algae plate layout was designed to use the 60 interior wells out of 96 wells for the experiment. The 36 outer wells were filled with Millipore water and media to prevent evaporation and edge effects in the inner algae wells, as well as serve as blanks. The 60 wells with algae contained a total volume of 251 μL (100 μL of media+DMSO compound stock +150 μL dilute algae stock). For 20 μM and 200 nM assay plates, 10 mM compound stock in DMSO is diluted into plate maps of 5 mM and 50 μM assay stocks, respectively. […] Plates were parafilmed during growth to limit the amount of evaporation that can occur. Plates were numbered, and numerically ordered to ensure they got the same shaker space.
The shakers are kept at a constant shaking of 150 rpm. Ambient temperature is 22±3° C.
In experiment [3] the target is Cdk2/cyclin A (Homo sapiens, UniProt P24941). The conditions noted are these: Cdk2/cyclin A; cited from earlier work.
Experiment [4] has as its target Cdk2/cyclin E (Homo sapiens, UniProt P24941). The conditions noted are these: cited from earlier work.
In experiment [5] the target is c-Jun N-terminal kinase. The conditions noted are these: cited from earlier work.
Experiment [6] concerns Phaeodactylum tricornutum. The experiment can be described thus: Microplate assay: growth (absorbance 680 nm) and intracellular lipids (Nile Red fluorescence). The class given is cell-based.
The subject of experiment [7] is Nannochloropsis salina.
Experiment [8] has as its target protein phosphatase 2A (Homo sapiens, UniProt P67775). The settings on record: cited from earlier work.
Experiment [9] addresses p70 S6 kinase activation. The settings on record: signaling that leads to p70 S6 kinase activation; cited from earlier work.
In experiment [10] the target is EGFR tyrosine kinase (Homo sapiens, UniProt P00533). The settings on record: cited from earlier work.
Experiment [11] addresses PKC. The conditions noted are these: cited from earlier work.
The target of experiment [12] is PKA (Homo sapiens, UniProt P17612). The settings on record: cited from earlier work.
The test system of experiment [13] is ERK signaling pathway. The conditions noted are these: cited from earlier work.
For experiment [14], the system named is Nannochloropsis salina. The experiment is described as follows: 500 mL batch culture: growth, dry weight and lipid extract (gravimetric). The class given is cell-based. The settings on record: 4 nM.
For experiment [15] the following is noted: DPPH free radical scavenging activity; cited from earlier work.
Experiment [16] relates to CDK. The conditions noted are these: CDKs; cited from earlier work.
[17] abbreviates: Nannochloris sp., compounds tested at 20 μM.

A word on the pIC50: it is the negative decadic logarithm of the IC50, by convention in mol/L. Usually pKi stands for −log10 of the Ki, conventionally taken in molar units.

Sequence of protein phosphatase 2A (P67775 whole entry): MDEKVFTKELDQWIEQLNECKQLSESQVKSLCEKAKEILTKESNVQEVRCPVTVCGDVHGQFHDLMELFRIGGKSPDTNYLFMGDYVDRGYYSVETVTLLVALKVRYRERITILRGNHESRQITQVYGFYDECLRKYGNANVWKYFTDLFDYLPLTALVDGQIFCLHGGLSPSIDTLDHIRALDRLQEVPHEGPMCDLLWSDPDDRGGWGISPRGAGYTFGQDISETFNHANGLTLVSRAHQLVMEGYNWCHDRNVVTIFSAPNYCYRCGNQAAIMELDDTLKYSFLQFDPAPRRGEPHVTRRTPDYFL
Sequence of EGFR tyrosine kinase (P00533 25-1210): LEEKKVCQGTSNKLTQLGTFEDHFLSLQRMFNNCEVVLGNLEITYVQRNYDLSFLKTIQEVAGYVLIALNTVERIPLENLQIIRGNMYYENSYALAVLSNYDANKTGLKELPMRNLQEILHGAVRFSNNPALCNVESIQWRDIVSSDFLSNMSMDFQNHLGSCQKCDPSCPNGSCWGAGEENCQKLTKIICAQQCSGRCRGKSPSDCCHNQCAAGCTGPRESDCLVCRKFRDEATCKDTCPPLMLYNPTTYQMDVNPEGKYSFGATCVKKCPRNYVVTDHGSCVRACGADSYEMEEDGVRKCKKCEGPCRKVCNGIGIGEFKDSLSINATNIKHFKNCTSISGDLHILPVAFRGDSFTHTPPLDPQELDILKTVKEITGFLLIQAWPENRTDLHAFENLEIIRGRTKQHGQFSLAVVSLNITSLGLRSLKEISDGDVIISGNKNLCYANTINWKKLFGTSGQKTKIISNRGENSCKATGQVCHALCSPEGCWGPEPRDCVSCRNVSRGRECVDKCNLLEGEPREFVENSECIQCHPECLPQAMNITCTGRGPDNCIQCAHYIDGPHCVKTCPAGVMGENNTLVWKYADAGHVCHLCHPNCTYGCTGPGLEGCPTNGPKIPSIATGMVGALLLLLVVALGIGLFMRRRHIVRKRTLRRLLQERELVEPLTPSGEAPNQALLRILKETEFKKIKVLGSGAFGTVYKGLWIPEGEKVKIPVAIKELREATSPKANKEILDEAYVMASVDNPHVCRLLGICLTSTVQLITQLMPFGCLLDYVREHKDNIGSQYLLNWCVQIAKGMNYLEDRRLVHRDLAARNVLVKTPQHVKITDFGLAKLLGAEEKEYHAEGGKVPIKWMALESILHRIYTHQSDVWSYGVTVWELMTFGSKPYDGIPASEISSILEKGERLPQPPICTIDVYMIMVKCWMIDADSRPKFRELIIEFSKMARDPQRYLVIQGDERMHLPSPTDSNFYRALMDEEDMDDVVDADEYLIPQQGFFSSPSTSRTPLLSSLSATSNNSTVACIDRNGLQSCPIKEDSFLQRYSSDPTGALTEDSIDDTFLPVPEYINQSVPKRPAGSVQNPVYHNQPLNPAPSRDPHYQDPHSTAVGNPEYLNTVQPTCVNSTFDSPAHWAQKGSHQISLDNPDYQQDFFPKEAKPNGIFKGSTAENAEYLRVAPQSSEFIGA

As to `CCCCc1c(-c2ccc(O)cc2)[nH]c2nccnc12` [Aloisine A, 7-n-Butyl-6-(4-hydroxyphenyl)[5H]pyrrolo[2,3-b]pyrazine], the “Absorbance (percent increase)” value in experiment [1] (200 nM) is reported as −5.4%; in experiment [1] (20 μM) it was −12.6%. Also, the entries for the “Nile Red percent increase” value in experiment [1] (200 nM) and in [1] (20 μM) were 125.9% and 84.1%, respectively. Moreover, the “Nile Red Fluorescence % Increase” value in [2] is recorded as 117.7%. Also, the pIC50 was 6.92 in experiment [3], 6.40 in experiment [4] and 5.00 to 5.52 in experiment [5].

Take `CC12C(=O)OC(=O)C1(C)C1CCC2O1` (stereo not drawn) [Cantharidin, 2,6-Dimethyl-4,10-dioxatricyclo-[5.2.1.0^2,6]decane-3,5-dione]: the “% increase (lipid production)” value in [6] (0.0252-0.0757 nM) is on record as 9-35%; in experiment [6] (0.0252-165.6 nM (H2O)) it was 0.17-168.19%; in [7] (0.0252-0.681 nM), 1-15%; in experiment [7] (0.0252-165 nM (H2O)), 7-87%; in experiment [2] (55.2-165.6 nM), 11-54%. In [1] (200 nM), the “Absorbance (percent increase)” value was −6.5%. The “Nile Red percent increase” value in experiment [1] (200 nM) amounted to 64.5%. Moreover, the “Nile Red Fluorescence % Increase” value in experiment [1] (setting [17]) worked out at 22.9%. Moreover, the pIC50 in experiment [8] was 7.40.

Take `CO[C@H]1C[C@@H]2CC[C@@H](C)[C@@](O)(O2)C(=O)C(=O)N2CCCC[C@H]2C(=O)O[C@H]([C@H](C)C[C@@H]2CC[C@@H](O)[C@H](OC)C2)CC(=O)[C@H](C)/C=C(\C)[C@@H](O)[C@@H](OC)C(=O)[C@H](C)C[C@H](C)/C=C/C=C/C=C/1C` [Rapamycin, (3S,6R,7E,9R,10R,12R,14S,15E,17E,19E,21S,23S,26R,27R,34aS)-9,10,12,13,14,21,22,23,24,25,26,27,32,33,34,34a-hexadecahydro-9,27-dihydroxy-3-[(1R)-2-[(1S,3R,4R)-4-hydroxy-3-methoxycyclohexyl]-1-methylethyl]-10,21-dimethoxy-6,8,12,14,20,26-hexamethyl-23,27-epoxy-3H-pyrido[2,1-c][1,4]-oxaazacyclohentriacontine-1,5,11,28,29(4H,6H,31H)-pentone]: in experiment [1] (200 nM), the “Absorbance (percent increase)” value is reported as −5.9%. Also, in experiment [1] (200 nM), the “Nile Red percent increase” value is 107.9%. In addition, the “Nile Red Fluorescence % Increase” value in [1] (setting [17]) amounted to 117.3%; in experiment [2] it was 141.6%. In addition, in [9], the pIC50 is 10.30.

`O=C(/C=C/c1ccc(O)c(O)c1)c1ccc(O)cc1O` [Butein, (E)-1-(2,4-dihydroxyphenyl)-3-(3,4-dihydroxyphenyl)prop-2-en-1-one]: the figures for the “% increase (lipid production)” value in experiment [6] (54 nM-40 μM (H2O)) and in [6] (40 μM) were 1-116 (H2O) % and 14%, respectively. The pIC50 in experiment [10] is 4.19.

Consider `CN(C)CCCn1cc(C2=C(c3c[nH]c4ccccc34)C(=O)NC2=O)c2ccccc21` [Bisindolylmaleimide, 2-[1-(3-Dimethylaminopropyl)-1H-indol-3-yl]-3-(1H-indol-3-yl)-maleimide], for which the “% Increase based on Nile Red Fluorescence Intensity” value in experiment [1] (0 h, 1.3 µM) is on record as 70%. For the same compound, the “% Lipid increase based on Nile red fluorescence intensity” value in [1] (Nannochloris sp., 49 nM, (water), t=day 0) turned out to be 141%. For the same compound, the pKi in experiment [11] was 8.00; in experiment [12] it was 5.70.

For the compound `Cn1cnc2c1c(=O)[nH]c(=O)n2C` [Theobromine], the “Nile Red Fluorescence % Increase” value in [1] (Nannochloris sp., compounds tested at 200 nM) stood at 34.3%. Moreover, the potency result in experiment [13] is on record as “(potency = 0.004 μM)”.

On to “2-tert-Butyl-4-hydroxyanisole and 3-tert-butyl-4-hydroxyanisole (mixture) [BHA]”, for which the “increase in lipid levels” value in [14] (batch cultures) was determined as 63%. The compound also had a Lipid productivity in experiment [14] (N. salina, 500 mL culture) of 8.1 ± 0.6 mgL^−1day^−1. Moreover, the Lipid content in experiment [14] (N. salina, 500 mL culture, dried lipid extract per dry biomass) stood at 28.8 ± 11.4 % w/w. Also, the “Change in Lipids” value in experiment [14] (N. salina, 500 mL culture, gravimetric, relative to averaged control without DMSO) is reported as 63%. The “Specific Growth Rate” value in experiment [14] (N. salina, 500 mL culture, mid-exponential growth phase) turned out to be 0.23 ± 0.002 day⁻¹. Besides, in experiment [7] (increase of lipid production, N. salina, best conc. 10 nM), the “% Inc” value stood at 290.14%. Besides, the pIC50 in [15] was 4.37.

Take `COc1ccc2c(c1)/C(=C/c1cnc[nH]1)C(=O)N2` [SU9516]: the pIC50 in experiment [16] was 7.66.
